Target: HDM2 protein (Homo sapiens, UniProt Q00987)
Experiment: fluorescence polarization screening assay (FP IC50)
Format: binding
Conditions: class symbols
Procedure: The compounds were evaluated to determine activity at the HDM2 protein by known methods such as the fluorescence polarization screening assay that measures the inhibitory concentration that achieves 50% of maximal activity (FP IC50) and the dissociation constant for inhibitor binding (FP Ki). [Zhang et al., J. Analytical Biochemistry 331: 138-146 (2004)].

HDM2 protein, sequence (Q00987 whole entry): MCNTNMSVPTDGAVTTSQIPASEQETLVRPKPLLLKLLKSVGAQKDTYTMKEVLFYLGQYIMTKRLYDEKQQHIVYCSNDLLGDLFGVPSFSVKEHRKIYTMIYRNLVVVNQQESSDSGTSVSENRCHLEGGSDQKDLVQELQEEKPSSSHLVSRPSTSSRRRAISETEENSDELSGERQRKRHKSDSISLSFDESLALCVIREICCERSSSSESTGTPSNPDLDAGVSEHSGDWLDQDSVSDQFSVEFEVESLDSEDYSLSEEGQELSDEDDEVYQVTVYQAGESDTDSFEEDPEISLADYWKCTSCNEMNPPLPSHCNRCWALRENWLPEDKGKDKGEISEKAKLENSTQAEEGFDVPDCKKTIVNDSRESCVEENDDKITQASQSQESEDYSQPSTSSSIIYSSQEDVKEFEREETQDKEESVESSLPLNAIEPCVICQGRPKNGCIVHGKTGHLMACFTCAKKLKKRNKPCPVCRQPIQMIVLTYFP

SMILES	IC50
CCC[C@H]1N(C(=O)c2ncccc2C(F)(F)F)CCC[C@@]1(Oc1csc(C(F)(F)F)c1)C(=O)N1CCc2cc(Cl)ccc2[C@H]1CCC(=O)N1CCN(CCO)CC1 [Compound A91, 2-(4-{3-[(1R)-6-chloro-2-{[(2R,3S)-2-propyl-1-{[3-(trifluoromethyl)pyridin-2-yl]carbonyl}-3-{[5-(trifluoromethyl)thiophen-3-yl]oxy}piperidin-3-yl]carbonyl}-1,2,3,4-tetrahydroisoquinolin-1 - yl]propanoyl}piperazin-1-yl)ethanol]	0.001 to 0.1 µM
CCC[C@H]1N(C(=O)c2ncccc2C(F)(F)F)CCC[C@@]1(Oc1csc(C(F)(F)F)c1)C(=O)N1CCc2cc(Cl)ccc2C1C(=O)N1CCN(CCO)CC1 (stereo partly drawn) [Compound A92, 2-{4-[(6-chloro-2-{[(2R,3S)-2-propyl-1-{[3-(trifluoromethyl)pyridin-2-yl]carbonyl}-3-{[5-(trifluoromethyl)thiophen-3-yl]oxy}piperidin-3-yl]carbonyl}-1,2,3,4-tetrahydroisoquinolin-1-yl)carbonyl]piperazin-1-yl}ethanol]	0.101 to 20 µM
CCC[C@H]1N(C(=O)c2ncccc2C(F)(F)F)CCC[C@@]1(Oc1csc(C(F)(F)F)c1)C(=O)N1CCc2cc(F)ccc2C1C(=O)N1CCN(CCO)CC1 (stereo partly drawn) [Compound A93, 2-{4-[(6-fluoro-2-{[(2R,3S)-2-propyl-1-{[3-(trifluoromethyl)pyridin-2-yl]carbonyl}-3-{[5-(trifluoromethyl)thiophen-3-yl]oxy}piperidin-3-yl]carbonyl}-1,2,3,4-tetrahydroisoquinolin-1-yl)carbonyl]piperazin-1-yl}ethanol]	0.001 to 0.1 µM
CCC[C@H]1N(C(=O)c2ncccc2C(F)(F)F)CCC[C@@]1(Oc1csc(C(F)(F)F)c1)C(=O)N1CCc2cc(F)ccc2C1C(=O)N1CCN(CCO)CC1 (stereo partly drawn) [Compound A94, 2-{4-[(6-fluoro-2-{[(2R,3S)-2-propyl-1-{[3-(trifluoromethyl)pyridin-2-yl]carbonyl}-3-{[5-(trifluoromethyl)thiophen-3-yl]oxy}piperidin-3-yl]carbonyl}-1,2,3,4-tetrahydroisoquinolin-1-yl)carbonyl]piperazin-1-yl}ethanol]	0.101 to 20 µM
NC(=O)C1c2ccc(Cl)cc2CCN1C(=O)[C@]1(Oc2csc(C(F)(F)F)c2)CCCN(C(=O)c2ncccc2C(F)(F)F)[C@@H]1CC(=O)O (stereo partly drawn) [Compound A95, [(2R,3S)-3-[(1-carbamoyl-6-chloro-3,4-dihydroisoquinolin-2(1H)-yl)carbonyl]-1-{[3-(trifluoromethyl)pyridin-2-yl]carbonyl}-3-{[5-(trifluoromethyl)thiophen-3-yl]oxy}piperidin-2-yl]acetic acid]	0.001 to 0.1 µM
CCC[C@H]1N(C(=O)c2ncccc2C(F)(F)F)CCC[C@@]1(Oc1csc(C(F)(F)F)c1)C(=O)N1CCc2cc(Cl)ccc2C1C1CCC(C(=O)O)C1 (stereo partly drawn) [Compound A96, 3-(6-chloro-2-{[(2R,3S)-2-propyl-1-{[3-(trifluoromethyl)pyridin-2-yl]carbonyl}-3-{[5-(trifluoromethyl)thiophen-3-yl]oxy}piperidin-3-yl]carbonyl}-1,2,3,4-tetrahydroisoquinolin-1-yl)cyclopentanecarboxylic acid]	0.001 to 0.1 µM
NC(=O)C1c2ccc(Cl)cc2CCN1C(=O)[C@]1(Oc2csc(C(F)(F)F)c2)CCCN(C(=O)c2ncccc2C(F)(F)F)[C@@H]1CC(=O)O (stereo partly drawn) [Compound A97, [(2R,3S)-3-[(1-carbamoyl-6-chloro-3,4-dihydroisoquinolin-2(1H)-yl)carbonyl]-1-{[3-(trifluoromethyl)pyridin-2-yl]carbonyl}-3-{[5-(trifluoromethyl)thiophen-3-yl]oxy}piperidin-2-yl]acetic acid]	0.001 to 0.1 µM
CCC[C@H]1N(C(=O)c2ncccc2C(F)(F)F)CCC[C@@]1(Oc1csc(C(F)(F)F)c1)C(=O)N1CCc2cc(Cl)ccc2[C@H]1CCC(=O)N1CCC(C(=O)O)CC1 [Compound A98, 1-{3-[(1R)-6-chloro-2-{[(2R,3S)-2-propyl-1-{[3-(trifluoromethyl)pyridin-2-yl]carbonyl}-3-{[5-(trifluoromethyl)thiophen-3-yl]oxy}piperidin-3-yl]carbonyl}-1,2,3,4-tetrahydroisoquinolin-1-yl]propanoyl}piperidine-4-carboxylic acid]	0.001 to 0.1 µM
CCC[C@H]1N(C(=O)c2ncccc2C(F)(F)F)CCC[C@@]1(Oc1csc(C(F)(F)F)c1)C(=O)N1CCc2cc(Cl)ccc2[C@@H]1CCC(=O)N1CCC(C(=O)O)CC1 [Compound A99, 1-{3-[(1S)-6-chloro-2-{[(2R,3S)-2-propyl-1-{[3-(trifluoromethyl)pyridin-2-yl]carbonyl}-3-{[5-(trifluoromethyl)thiophen-3-yl]oxy}piperidin-3-yl]carbonyl}-1,2,3,4-tetrahydroisoquinolin-1-yl]propanoyl}piperidine-4-carboxylic acid]	0.001 to 0.1 µM
CCC[C@H]1N(C(=O)c2ncccc2C(F)(F)F)CCC[C@@]1(Oc1csc(C(F)(F)F)c1)C(=O)N1CCc2cc(Cl)ccc2C1C(=O)O (stereo partly drawn) [Compound A100, 6-chloro-2-{[(2R,3S)-2-propyl-1-{[3-(trifluoromethyl)pyridin-2-yl]carbonyl}-3-{[5-(trifluoromethyl)thiophen-3-yl]oxy}piperidin-3-yl]carbonyl}-1,2,3,4-tetrahydroisoquinoline-1-carboxylic acid]	0.001 to 0.1 µM
CCC[C@H]1N(C(=O)c2ncccc2C(F)(F)F)CCC[C@@]1(Oc1csc(C(F)(F)F)c1)C(=O)N1CCc2cc(F)ccc2C1C(=O)O (stereo partly drawn) [Compound A101, 6-fluoro-2-{[(2R,3S)-2-propyl-1-{[3-(trifluoromethyl)pyridin-2-yl]carbonyl}-3-{[5-(trifluoromethyl)thiophen-3-yl]oxy}piperidin-3-yl]carbonyl}-1,2,3,4-tetrahydroisoquinoline-1-carboxylic acid]	0.001 to 0.1 µM
CCC[C@H]1N(C(=O)c2ncccc2C(F)(F)F)CCC[C@@]1(Oc1csc(C(F)(F)F)c1)C(=O)N1CCc2cc(Cl)ccc2C1C(=O)O (stereo partly drawn) [Compound A102, 6-chloro-2-{[(2R,3S)-2-propyl-1-{[3-(trifluoromethyl)pyridin-2-yl]carbonyl}-3-{[5-(trifluoromethyl)thiophen-3-yl]oxy}piperidin-3-yl]carbonyl}-1,2,3,4-tetrahydroisoquinoline-1-carboxylic acid]	0.001 to 0.1 µM
CCC[C@H]1N(C(=O)c2ncccc2C(F)(F)F)CCC[C@@]1(Oc1csc(C(F)(F)F)c1)C(=O)N1CCc2cc(Cl)ccc2C1CO (stereo partly drawn) [Compound A103, (6-chloro-2-{[(2R,3S)-2-propyl-1-{[3-(trifluoromethyl)pyridin-2-yl]carbonyl}-3-{[5-(trifluoromethyl)thiophen-3-yl]oxy}piperidin-3-yl]carbonyl}-1,2,3,4-tetrahydroisoquinolin-1-yl)methanol]	0.101 to 20 µM
CCC[C@H]1N(C(=O)c2ncccc2C(F)(F)F)CCC[C@@]1(Oc1csc(C(F)(F)F)c1)C(=O)N1CCc2cc(F)ccc2C1C(=O)O (stereo partly drawn) [Compound A104, 6-fluoro-2-{[(2R,3S)-2-propyl-1-{[3-(trifluoromethyl)pyridin-2-yl]carbonyl}-3-{[5-(trifluoromethyl)thiophen-3-yl]oxy}piperidin-3-yl]carbonyl}-1,2,3,4-tetrahydroisoquinoline-1-carboxylic acid]	0.001 to 0.1 µM
